In patent US8173654B2, “Triazolopyridazine compounds” (Janssen Pharmaceutica N.V., priority 2005, dated 2012):

Tests used:
[1] = system: HepG2 cells; assay: HepG2 cellular scatter assay (HGF-induced, RT-CES impedance); format: cell-based; settings: Homo sapiens, 40 ng/ml HGF
Description: Human Growth Factor (HGF) and its receptor (c-Met) are involved in cellular motility. Indeed HGF was also identified as Scatter Factor (SF), based on its powerful motility effect on certain cell types. Cellular motility is critical for pathological processes of oncologic disease, most importantly, the establishment of metastatic lesions distant from the primary tumor and formation of new blood vessels (angiogenesis). One therapeutic hypothesis is that this movement of cell types may be blunted or eliminated by the use of c-Met kinase inhibitors. (See: Jiang, W. C, Martin, T. A., Parr, C., Davies, G., Matsumoto, K. and Nakamura, T. Critical Reviews in Oncology/Hematology 53 (2005) 35-69. and references cited therein.) It should also be noted that cellular motility, especially with regard to angiogenesis, is important in other disease states.
Cellular scatter was measured with a Real-Time Cell Electronic Sensing system (RT-CES), from ACEA Biosciences Inc. (San Diego, Calif.). The RT-CES system uses specialized RT-ACE microtiter plates (cat:RCD96, ACEA Biosciences Inc.) to non-invasively quantify cellular status in real-time. The interaction of cells with the surface of the plates, which are integrated with microelectronic sensor arrays, leads to the generation of a cell-electrode impedance response. A higher impedance value indicates more cell attachment and thus less cellular scatter.
50 μl of Assay Media (MEM supplemented with 10% FBS, 2 mM L-glutamine, 1.5 g/L sodium bicarbonate, 1 mM sodium pyruvate, and 0.1 mM non-essential amino acids) was added into 96-well RT-ACE plates and recorded for 30 min on the RT-CES. 50 μl of HepG2 cells (cat: HB-8065, ATCC) were added into each well ([…]). The plate was read in RT-CES and incubated for 20-24 hours. After the 20-24 hours incubation, 50 μl of Assay Media containing different concentrations of testing compounds was added into each well and incubated for 1 hour. Finally, 50 μl of Assay Media containing 160 ng/ml of HGF was added into each well (40 ng/ml in 200 μl). The plate was incubated and read in the RT-CES for 20-24 hours, with a record time every 15 minutes. The positive control was HGF without compounds and negative control was no-HGF without compound. All determinations were performed in duplicate wells and IC50 values were calculated using GraphPad Prism software (GraphPad Software; San Diego, Calif.).

[2] = target: c-Met (Homo sapiens, UniProt P08581); assay: Delfia autophosphorylation kinase assay on the c-Met; format: biochemical; parameters: The purified His6 tagged cytoplasmic domain of c-Met was diluted to a concentration of 500 ng/ml; host or cells: Sf9 insect cells (baculovirus, pFastBacHTa); settings: His6 tagged cytoplasmic domain of c-Met, 1 μM ATP; read-out: cMet Delfia autophos IC-50
Sequence of c-Met (P08581 956-1390 limits assumed): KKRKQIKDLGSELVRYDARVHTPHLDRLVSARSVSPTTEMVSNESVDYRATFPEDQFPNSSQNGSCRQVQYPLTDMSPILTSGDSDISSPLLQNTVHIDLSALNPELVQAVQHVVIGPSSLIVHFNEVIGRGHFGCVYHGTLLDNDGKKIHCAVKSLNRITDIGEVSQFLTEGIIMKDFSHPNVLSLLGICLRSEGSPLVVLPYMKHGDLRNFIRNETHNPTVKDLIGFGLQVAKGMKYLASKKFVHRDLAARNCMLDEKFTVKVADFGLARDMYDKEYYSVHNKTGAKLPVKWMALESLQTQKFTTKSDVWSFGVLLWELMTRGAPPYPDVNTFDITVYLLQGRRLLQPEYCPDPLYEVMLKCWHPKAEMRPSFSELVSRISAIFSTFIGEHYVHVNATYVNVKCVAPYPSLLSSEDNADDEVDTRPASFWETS
Procedure, shortened: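 Time-resolved fluorescence tracked autophosphorylation of the His6-tagged c-Met cytoplasmic domain, dispensed at 500 ng/ml onto nickel-chelate plates. Reaction buffer held 1 μM ATP, 10 mM MgCl2, vanadate and DTT at pH 8.0, for 1 h at room temperature.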

IC50 [1]: 106 nM
IC50 [2]: 1 nM
SMILES: Cn1cc(-c2ccc3nnc(C(F)(F)c4ccc5ncccc5c4)n3n2)cn1 [Example 61, 6-{Difluoro-[6-(1-methyl-1H-pyrazol-4-yl)-[1,2,4]triazolo[4,3-b]pyridazin-3-yl]-methyl}-quinoline]
